US7504412B2, “Imidazopyridine derivatives” (Banyu Pharmaceuticals, Co., Ltd., priority 2003, dated 2009)
Where a name gives a salt, the structure may show the parent alone.

Assays:
human MCH-1R = target: T1, human MCH-1R (Homo sapiens, UniProt Q99705); test: MCH binding inhibition test; conditions: membrane samples from MCH-1R expression CHO-K1 cells, 50 pM [125I]MCH, 25° C., one hour; read-out: IC50 (50% inhibition concentration to specific [125I]MCH binding)
T1 construct: expressed in transfected cells; host or cells: CHO-K1 (American Type Culture Collection), membrane samples
T1 sequence (Q99705 whole entry): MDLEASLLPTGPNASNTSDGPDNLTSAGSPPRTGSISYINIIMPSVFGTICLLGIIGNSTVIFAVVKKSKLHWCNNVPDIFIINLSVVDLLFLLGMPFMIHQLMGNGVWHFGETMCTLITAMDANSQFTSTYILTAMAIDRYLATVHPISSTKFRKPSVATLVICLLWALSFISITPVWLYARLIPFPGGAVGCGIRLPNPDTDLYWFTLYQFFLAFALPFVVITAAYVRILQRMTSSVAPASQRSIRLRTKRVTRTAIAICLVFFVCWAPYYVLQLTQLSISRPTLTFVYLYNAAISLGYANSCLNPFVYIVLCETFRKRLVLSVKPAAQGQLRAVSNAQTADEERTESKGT
Method: A human MCH-1R encoding cDNA sequence [FEBS Letters, 398, 253 (1996); Biochimica et Biophisica Acta, 1401, 216 (1998)] was cloned to plasmid vector pEF/mic/cyto (Invitrogen Corporation). The obtained expression vector was transfected to a host cell CHO-K1 (American Type Culture Collection) using lipofectamine plus reagent (Life Technology Inc.) to provide MCH-1R expression cells.
Membrane samples prepared from the MCH-1R expression cells were incubated with each test compound and 50 pM of [^125I]MCH (NEN Co.), in an assay buffer (50 mM Tris buffer comprising 10 mM magnesium chloride, 2 mM ethylenediamine tetraacetate, 0.01% bacitracin and 0.2% bovine serum albumin; pH 7.4) at 25° C. for an hour, followed by filtration through Glass Filter GF/C (Wattman Co.). After washing the glass filter with 50 mM Tris buffer (pH7.4) comprising 10 mM magnesium chloride, 2 mM ethylenediamine tetraacetate and 0.04% Tween-20, radio activity on the glass filter was measured. Non-specific binding was measured in the presence of 1 μM human MCH and 50% inhibition concentration (IC50 value) of each test compound to specific [^125I] MCH binding was determined.

[1] = test system: MCH-induced feeding behavior; test: Antagonism test to MCH-induced feeding behavior; assay type: in vivo, rat; conditions: male SD rats satiated with high fat diet; 10 or 30 mg/kg oral, one hour before MCH 5 μg/head into third ventricle
Method: Ketamine-xylazine anesthetized (74 and 11 mg/kg single intraperitoneal administration) male SD rats (9-12 weeks old) were inserted with chronic guide cannule (26 gauge) into their third ventricle as fixed at a set cerebral location with dental resin. The position of the front end of the guide cannula was set to be 2.2 mm behind the bregma on median line and at a depth of 8 mm from the cranial surface. After two weeks' recovery term, the rats were fed with high fat diet for about 4 hours to satiation. Thereafter a needle (33 gauge) which was connected to a microsyringe was inserted into the guide cannula and through which melanin concentrating hormone (MCH, 5 μg/1 μL/head, as dissolved in artificial liquor cerebrospinalis) was administered into each rat's third ventricle. The compound of Example 17 (10 or 30 mg/kg) as suspended in 0.5% aqueous methylcellulose solution was orally administered to the rats an hour before the MCH administration. The rats were successively fed with high fat diet, and their feed intake during the two hours following the MCH administration was measured.
In this test, the feed intake in the case where MCH and artificial liquor cerebrospinalis (aCSF) alone was administered in place of the compound of the present invention was used as the reference.

Row | Structure (SMILES) | IC50 (human MCH-1R) [nM] | feed intake during the two hours following MCH administration [1]
1 | CC(C)c1cn2cc(NC(=O)c3ccc(-c4ccc(F)cc4)cc3)ccc2n1 [Example 2, 4′-Fluoro-N-(2-isopropylimidazo[1,2-a]pyridin-6-yl)[1,1′-biphenyl]-4-carboxamide] | 3.1 | 
2 | Cc1c(C2CC2)nc2ccc(NC(=O)c3ccc(-c4ccc(F)cc4)cn3)cn12 [Example 14, N-(2-cyclopropyl-3-methylimidazo[1,2-a]pyridin-6-yl)-5-(4-fluorophenyl)-2-pyridinecarboxamide hydrochloride] | 2 | 
3 | Cc1c(C2CC2)nc2ccc(NC(=O)c3ccc(-c4ccccn4)cc3)cn12 [Example 17, N-(2-cyclopropyl-3-methylimidazo[1,2-a]pyridin-6-yl)-4-(2-pyridyl)benzamide hydrochloride] | 3.3 | dose-dependently inhibited increase in the amount of feed intake induced by the MCH

The next lines start with results.

Row | IC50 (human MCH-1R) [nM] | Structure (SMILES) | feed intake during the two hours following MCH administration [1]
4 | 4.3 | Cc1c(C2CC2)nc2ccc(NC(=O)CCc3ccc(C(F)(F)F)cc3)cn12 [Example 18, N-(2-cyclopropyl-3-methylimidazo[1,2-a]pyridin-6-yl)-3-[4-(trifluoromethyl)phenyl]propanamide] | 
5 | 9.5 | Cc1c(C(C)(C)O)nc2ccc(NC(=O)c3ccc(-c4ccc(C(F)(F)F)cn4)cc3)cn12 [Example 32, N-[2-(1-hydroxy-1-methylethyl)-3-methylimidazo[1,2-a]-pyridin-6-yl]-4-[5-(trifluoromethyl)-2-pyridyl]benzamide] | 
6 | 10.5 | O=C(Nc1ccc2nc(C3CC3)c(CO)n2c1)c1ccc(-c2ccc(C(F)(F)F)cc2)cc1 [Example 36, N-[2-cyclopropyl-3-(hydroxymethyl)imidazo[1,2-a]pyridin-6-yl]-4′-(trifluoromethyl)[1,1′-biphenyl]-4-carboxamide] | 
